Assay results from publication PMC9014415, “Repositioning of a Diaminothiazole Series Confirmed to Target the Cyclin-Dependent Kinase CRK12 for Use in the Treatment of African Animal Trypanosomiasis” (Journal of Medicinal Chemistry, 2022).

How the values were obtained:
[1] = Mouse liver microsome stability; assay type: in vitro ADME; conditions: intrinsic clearance
Experimental: solubility method,5 the long shaking times appear to give solubility values that more closely reflect those made from solid samples (unpublished in-house data).
2.2 Microsomal stability studies
(a) Mouse liver microsome stability. These methods have been previously reported.6
(b) Bovine liver microsome stability. Test compounds (0.5 µM) were incubated with 0.5 mg/mL bovine liver microsomes (Xenotech LLC TM) in 50 mM potassium phosphate buffer, pH7.4 and the reaction initiated upon addition of excess NADPH (8 mg/mL in 50 mM potassium phosphate buffer, pH7.4).
Aliquots (50 µL) of the incubation mixture were taken at time zero, 3, 6, 9, 15 and 30 min then mixed with acetonitrile (100 µL) to stop the reaction. An internal standard was added to all samples, prior to centrifugation (10 min, 1,665 g, RT) to sediment precipitated protein. Reaction plates were then sealed prior to UPLCMSMS analysis using a Quattro Premier XE (Waters corporation, USA).
XLfit (IDBS, UK) was used to calculate the exponential decay and consequently the rate constant (k) from the ratio of peak area of test compound to internal standard at each timepoint. The rate of intrinsic clearance (CLi) of each test compound was then calculated using the following […]
CLi(mL/min/g liver) = k x V x microsomal protein yield […]

[2] = in vivo
Protein plasma binding = assay type: in vitro ADME; conditions: mouse
Experimental: (§1) 2.4 Protein plasma binding
(§2) This was determined as previously described.6
(§3) 2.5 PK and maximum tolerated dose - mouse
PK studies in female NMRI mice (Figure S1): Test compounds 1, 2 and 10 were dosed SC at 10 mg free base/kg (dose volume 10 mL/kg; dose vehicle: 5% (v/v) DMSO, 40% polyethylene glycol 400 (PEG400) and 55% deionized water) to female NMRI mice (n = 3). Blood samples (10 μL) were taken from each mouse at 0.08, 0.25, 0.5, 1, 2, 4, 6, 8 h post dose (24 h post dose for compounds 2 and 10 only) and mixed with two volumes of deionized water (20 μL). Alternatively, compound 2 was delivered for 48 h via SC implanted ALZET osmotic pumps (10, 25 and 50 mg free base/mL, vehicle: 50% DMSO and 50% deionized water) to the female NMRI mouse (n = 3). Blood samples (10 μL) from each mouse were taken at 1, 3, 6, 24, 30 and 48 h post-dose and mixed with two volumes of deionized water (20 μL).
Compound 1 as free base in 5% DMSO; 40% PEG400; 55% MilliQ water was dosed daily subcutaneously with doses of 50 mg/kg, 100 mg/kg and 300 mg/kg for 3 days.
2.6 PK and formulation studies - male Sprague rats […]

in vivo = conditions: NMRI, mouse
Experimental: as §1, §2, §3
PK studies in female NMRI mice (Figure S1): Test compounds 1, 2 and 10 were dosed SC at 10 mg free base/kg (dose volume 10 mL/kg; dose vehicle: 5% (v/v) DMSO, 40% polyethylene glycol 400 (PEG400) and 55% deionized water) to female NMRI mice (n = 3). Blood samples (10 μL) were taken from each mouse at 0.08, 0.25, 0.5, 1, 2, 4, 6, 8 h post dose (24 h post dose for compounds 2 and 10 only) and mixed with two volumes of deionized water (20 μL). Alternatively, compound 2 was delivered for 48 h via SC implanted ALZET osmotic pumps (10, 25 and 50 mg free base/mL, vehicle: 50% DMSO and 50% deionized water) to the female NMRI mouse (n = 3). Blood samples (10 μL) from each mouse were taken at 1, 3, 6, 24, 30 and 48 h post-dose and mixed with two volumes of deionized water (20 μL). […]
Response to treatment was determined by monitoring parasitaemia twice a week until day 21. […]
In each of the cattle efficacy studies (3.3, 3.4 and 3.5), efficacy was assessed primarily on absence of recrudescence of parasitaemia for 100 days after treatment administration together with improvements in Packed Cell Volume, body weight and clinical signs of infected compared with uninfected animals. […]

Row | Compound | Mouse Microsome Cli [1] [mL/min/g] | Mouse oral MTD ([2]; po, 3 days) [mg/kg] | Tolerability, maximum tolerated dose study ([2]; mouse, sc) | fraction unbound (Protein plasma binding) | Cmax (in vivo) [ng/mL]
1 | CC(C)CS(=O)(=O)N[C@H]1CC[C@H](Nc2nc(N)c(C(=O)c3c(F)cccc3F)s2)CC1 [Compound 1, N-((trans)-4-((4-Amino-5-(2,6-difluorobenzoyl)thiazol-2-yl)amino)cyclohexyl)-2-methylpropane-1-sulfonamide] | 11 | >300 | No tolerability issues | 0.16 | 
2 | CC(C)CS(=O)(=O)N[C@H]1CC[C@H](Nc2nc(N)c(C(=O)c3c(F)cc(CN(C)C)cc3F)s2)CC1 [Compound 2, N-(trans)-[4-[[4-Amino-5-[4-(dimethylaminomethyl)-2,6-difluoro-benzoyl]thiazol-2-yl]amino]cyclohexyl]-2-methyl-propane-1-sulfonamide] |  |  |  |  | 34 to 65
